ChEMBL document CHEMBL1142058, “Amorphane sesquiterpenes from a marine Streptomyces sp” (J Nat Prod, 2007)
Calls of active or inactive are those of the source.

Tests used:
Format in all cases: functional, organism-based
[1] = tested on: Rhizomucor miehei; assay: Antifungal activity against Mucor miehei at 80 ug/disk
[2] = tested on: Escherichia coli; assay: Antibacterial activity against Escherichia coli at 80 ug/disk
[3] = tested on: Artemia; assay: Activity against brine shrimp at 10 ug/mL
[4] = tested on: Staphylococcus aureus; assay: Antibacterial activity against Staphylococcus aureus at 80 ug/disk
[5] = tested on: Desmodesmus subspicatus; assay: Antimicrobial activity against Scenedesmus subspicatus at 80 ug/disk
[6] = tested on: Bacillus subtilis; assay: Antibacterial activity against Bacillus subtilis at 80 ug/disk
[7] = tested on: Candida albicans; assay: Antifungal activity against Candida albicans at 80 ug/disk
[8] = tested on: Chlorella sorokiniana; assay: Antimicrobial activity against Chlorella sorokiniana at 80 ug/disk
[9] = tested on: Chlorella vulgaris; assay: Antimicrobial activity against Chlorella vulgaris at 80 ug/disk
[10] = tested on: Streptomyces viridochromogenes; assay: Antibacterial activity against Streptomyces viridochromogenes Tu 57 at 80 ug/disk

Measured: Activity

CC(C)[C@H]1CC[C@@](C)(O)[C@H]2CC(=O)C(CO)=C[C@@H]12
inactive: [1] | [2] | [3] | [4] | [5] | [6] | [7] | [8] | [9] | [10]

CC1=C[C@H]2[C@@H](C(C)(C)O)CC[C@@](C)(O)[C@H]2CC1
inactive: [1] | [2] | [3] | [4] | [5] | [6] | [7] | [8] | [9] | [10]

CC1=C[C@H]2[C@@H](C(C)C)CC[C@@](C)(O)[C@H]2CC1=O
inactive: [1] | [2] | [3] | [4] | [5] | [6] | [7] | [8] | [9] | [10]

C[C@H]1C(=O)C[C@H]2[C@@H](C1O)[C@@H](C(C)(C)O)CC[C@@]2(C)O (stereo not given in full)
inactive: [1] | [2] | [3] | [4] | [5] | [6] | [7] | [8] | [9] | [10]
